Where a name gives a salt, the structure may show the parent alone.

For one series, the target named is T1, α7-subtype of nicotinic receptors (Rattus norvegicus, UniProt Q05941).
T1 construct: Cerebral cortices from male Wistar rats (150-250 g) are homogenised; from tissue; host or cells: rat cerebral cortex membrane homogenate
T1 sequence (Q05941 23-502): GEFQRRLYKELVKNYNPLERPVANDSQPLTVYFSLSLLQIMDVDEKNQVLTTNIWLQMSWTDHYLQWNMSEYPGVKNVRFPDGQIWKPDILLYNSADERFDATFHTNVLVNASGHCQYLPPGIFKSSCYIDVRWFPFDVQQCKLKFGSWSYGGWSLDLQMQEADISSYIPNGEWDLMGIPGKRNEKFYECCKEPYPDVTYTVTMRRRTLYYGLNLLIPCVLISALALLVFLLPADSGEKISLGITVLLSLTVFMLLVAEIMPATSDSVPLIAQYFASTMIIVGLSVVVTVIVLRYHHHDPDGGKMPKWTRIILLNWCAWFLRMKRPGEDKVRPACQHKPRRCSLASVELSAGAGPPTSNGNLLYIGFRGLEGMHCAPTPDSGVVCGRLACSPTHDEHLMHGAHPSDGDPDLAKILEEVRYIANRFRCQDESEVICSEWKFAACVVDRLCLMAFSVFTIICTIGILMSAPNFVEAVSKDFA
Briefly: In vitro inhibition of 3H-α-bungarotoxine binding in rat brain. The note with it: rat cerebral cortex homogenate; 3H-α-bungarotoxine 2 nM; 2 hours at 37° C.
The term IC50 denotes the point on the concentration scale where inhibition reaches its midpoint. Low readings indicate greater potency, high ones weaker potency. `Nc1ccccc1NC(=O)Nc1ccc(-c2ccc(C(=O)N3CCN4CCC3CC4)o2)cc1` [Compound A1, 1-{4-[5-(1,4-Diaza-bicyclo[3.2.2]nonane-4-carbonyl)-furan-2-yl]-phenyl}-3-(2-aminophenyl)-urea] came in with an IC50 of 1.2 nM.

The compound `CC(=O)Nc1ccccc1NC(=O)Nc1ccc(-c2ccc(C(=O)N3CCN4CCC3CC4)o2)cc1` [Compound B2, 1-{4-[5-(1,4-Diaza-bicyclo[3.2.2]nonane-4-carbonyl)-furan-2-yl]-phenyl}-3-(2-acetylaminophenyl)-urea] had an IC50 of 1.6 nM.

The compound `CCNC(=O)Nc1ccc(-c2ccc(C(=O)N3CCN4CCC3CC4)o2)cc1` [Compound C3, 1-{4-[5-(1,4-Diaza-bicyclo[3.2.2]nonane-4-carbonyl)-furan-2-yl]-phenyl}-3-ethyl-urea] yielded an IC50 of 0.56 nM. This IC50 lies about 2.9-fold lower than the previous one.

Tested on in the next series: not given
Test: not given
Conditions: not given
A word on the melting point: it is the temperature, or range, at which the solid turns liquid. Compound `Nc1ccc(C(=O)Nc2ccc(-c3ccc(C(=O)N4CCN5CCC4CC5)o3)cc2)cc1` showed a melting point of 151 °C. The compound `Nc1cccc(C(=O)Nc2ccc(-c3ccc(C(=O)N4CCN5CCC4CC5)o3)cc2)c1` yielded a melting point of 249 to 252 °C. `O=C(Nc1ccc(-c2ccc(C(=O)N3CCN4CCC3CC4)o2)cc1)Nc1ccccc1F`: the melting point was 241 °C (dec.). For the compound `O=C(Nc1ccc(-c2ccc(C(=O)N3CCN4CCC3CC4)o2)cc1)Nc1cccc(F)c1`, the melting point came out at 230 °C. Same read-out and setting: then `O=C(Nc1ccc(-c2ccc(C(=O)N3CCN4CCC3CC4)o2)cc1)Nc1ccccc1C(F)(F)F`, with 253 °C (dec.). As for `O=C(Nc1ccc(-c2ccc(C(=O)N3CCN4CCC3CC4)o2)cc1)Nc1cccc(C(F)(F)F)c1`, the melting point amounted to 171 °C. `O=C(c1ccc(-c2ccc(NC(=S)Nc3ccccc3)cc2)o1)N1CCN2CCC1CC2` came in with a melting point of 171.4 to 174.7 °C. Consider `O=C(Nc1ccc(-c2ccc(C(=O)N3CCN4CCC3CC4)o2)cc1)Nc1ccccc1Cl`, for which the melting point is 200 to 211 °C (dec.). Compound `O=C(Nc1ccc(-c2ccc(C(=O)N3CCN4CCC3CC4)o2)cc1)c1ccccc1` had a melting point of 254 °C. In the case of `CCNC(=O)Nc1ccccc1NC(=O)Nc1ccc(-c2ccc(C(=O)N3CCN4CCC3CC4)o2)cc1` (as salt: fumaric acid salt), the melting point fell in the range of 162.5 to 165.5 °C.

`CCNC(=O)Nc1cccc(-c2ccc(C(=O)N3CCN4CCC3CC4)o2)c1` (as salt: fumaric acid salt): the melting point fell in the range of 158 to 161 °C. The compound `O=C(Nc1ccc(-c2ccc(C(=O)N3CCN4CCC3CC4)o2)cc1)c1ccncc1` (as salt: fumaric acid salt) yielded a melting point of 250 to 253.5 °C. Still for that read-out and setting: then `O=C(Nc1ccc(-c2ccc(C(=O)N3CCN4CCC3CC4)o2)cc1)Nc1ccccc1[N+](=O)[O-]` (as salt: fumaric acid salt), with 198 to 202 °C. `O=C(Nc1cccc(-c2ccc(C(=O)N3CCN4CCC3CC4)o2)c1)c1ccccc1` (as salt: fumaric acid salt) had a melting point of 201 to 204 °C. The compound `O=C(c1ccc(-c2ccc(-n3cccc3)cc2)o1)N1CCN2CCC1CC2` (as salt: fumaric acid salt) displayed a melting point of 222 °C. On the same count and under the same terms, next, `O=C(c1ccc(-c2ccc(Nc3ncccc3[N+](=O)[O-])cc2)o1)N1CCN2CCC1CC2` (as salt: fumaric acid salt): 223 °C; `CC(=O)Nc1ccccc1NC(=O)Nc1ccc(-c2ccc(C(=O)N3CCN4CCC3CC4)o2)cc1` (as salt: fumaric acid salt) [Compound B2, 1-{4-[5-(1,4-Diaza-bicyclo[3.2.2]nonane-4-carbonyl)-furan-2-yl]-phenyl}-3-(2-acetylaminophenyl)-urea]: 159 to 169 °C. `CCNC(=O)Nc1ccc(-c2ccc(C(=O)N3CCN4CCC3CC4)o2)cc1` (as salt: fumaric acid salt) [Compound C3, 1-{4-[5-(1,4-Diaza-bicyclo[3.2.2]nonane-4-carbonyl)-furan-2-yl]-phenyl}-3-ethyl-urea]: the melting point is 167 to 171 °C.

The compound `O=C(Nc1ccc(-c2ccc(C(=O)N3CCN4CCC3CC4)o2)cc1)c1ccccc1[N+](=O)[O-]` (as salt: hydrochloric acid salt) showed a melting point of 283 °C. Regarding `O=C(Nc1ccc(-c2ccc(C(=O)N3CCN4CCC3CC4)o2)cc1)c1ccc([N+](=O)[O-])cc1` (as salt: hydrochloric acid salt), the melting point was in the range of 195 to 210 °C. Regarding `O=C(Nc1ccc(-c2ccc(C(=O)N3CCN4CCC3CC4)o2)cc1)c1cccc([N+](=O)[O-])c1` (as salt: hydrochloric acid salt), the melting point was more than 300 °C. With `Nc1ccccc1NC(=O)Nc1ccc(-c2ccc(C(=O)N3CCN4CCC3CC4)o2)cc1` [Compound A1, 1-{4-[5-(1,4-Diaza-bicyclo[3.2.2]nonane-4-carbonyl)-furan-2-yl]-phenyl}-3-(2-aminophenyl)-urea], the melting point was 174 °C.
